Data on three compounds can be found in patent publication US4092313A, “Preparation of 5-fluoropyrimidin-4-one derivatives” (Taisho Pharmaceutical Company Limited, priority 1975, dated 1978).

For series [1], the system named is transplanted tumors. Conditions: literature; cited from earlier work.
In series [2] the test system is Ehrlich carcinoma. Briefly: Anti-tumor effect, Ehrlich carcinoma subcutaneously transplanted in mouse. Conditions: oral, once daily for 7 days, tumor weighed on 10th day. The class given is in vivo. The procedure: (§1) Cells of Ehrlich carcinoma or sarcoma 180, 5 × 10^6 in number, are subcutaneously transplanted in a mouse. Twenty-four hours after the transplantation and during a subsequent period, the compound of this invention is orally given to the test animal once every day for 7 consecutive days. On the 10th day from the transplantation, the weight of tumor in the test animal is measured to determine the percentage of inhibition achieved by the compound relative to the weight of tumor in the control group.

Series [3] has as its system mice. Nature of the series: Acute toxicity, oral administration to mice, LD50 (method of Litchfield and Wilcoxon). The class given is in vivo. The source says: (§2) The compound of this invention is orally administered to mice, and the mice are checked 3 days, one week, 2 weeks and 3 weeks later for motality in terms of LD50 calculated according to the method of Litchfield and Wilcoxon.

The conditions of series [4]: continued administration, clinical; cited from earlier work.
In series [5] the test system is sarcoma 180. Briefly: Anti-tumor effect, sarcoma 180 subcutaneously transplanted in mouse. Format: in vivo. Conditions: oral, once daily for 7 days, tumor weighed on 10th day. How it is done:
as §1

Series [6] is described as follows: Acute toxicity, oral administration to mice, LD50 (method of Litchfield and Wilcoxon). Format: in vivo. The following applies: mouse, in vivo; for LD50 at 336 h: checked 2 weeks later; for LD50 at 504 h: checked 3 weeks later; for LD50 at 72 h: checked 3 days later; for LD50 at 168 h: checked one week later, read-out: LD50, 1 Week.
From the text: as §2

`O=c1[nH]cc(F)c(=O)[nH]1` [5-Fluorouracil, 5-fluorouracil, reference compound]: the “inhibition of transplanted tumors” value in series [1] was “found to inhibit transplanted tumors”. Besides, in series [2] (30 mg/kg/day), the “Inhibition percentage, Ehrlich carcinoma (tumor weight relative to control)” value is 61%. In addition, the “LD50, 2 Weeks” value in series [3] (checked 2 weeks later, 20160 min) was 145 mg/kg. In addition, the “LD50, 1 Week” value in series [3] (checked one week later, 10080 min) was found to be 200 mg/kg. Also, in series [4], the side effects result is “loss of appetite, stomatitis, nausea, vomiting and like gastrointestinal disorders, leukopenia, thrombocytopenia and like disorders in the blood, disorders in the liver and kidney”. Besides, the “Inhibition percentage, sarcoma 180 (tumor weight relative to control)” value in series [5] (30 mg/kg/day) came out at 64%.

What is called LD50 is the dose at which mortality reaches 50%. Regarding `O=c1[nH]c(OCc2ccccc2)ncc1F` [2-Benzyloxy-5-fluoropyrimidin-4-one, 2-benzyloxy-5-fluoropyrimidin-4-one], the “Inhibition percentage, Ehrlich carcinoma (tumor weight relative to control)” value in series [2] (90 mg/kg/day) was found to be 52%. Moreover, in series [6], the LD50 at 336 h is 894 mg/kg, the median lethal dose (LD50) at 504 h came out at 894 mg/kg, the LD50 at 72 h amounted to 894 mg/kg and the median lethal dose (LD50) at 168 h worked out at 894 mg/kg. Moreover, in series [5] (90 mg/kg/day), the “Inhibition percentage, sarcoma 180 (tumor weight relative to control)” value came to 70%.

`CCCCOc1ncc(F)c(=O)[nH]1` [2-n-Butoxy-5-fluoropyrimidin-4-one, 2-n-butoxy-5-fluoropyrimidin-4-one]: in series [2] (90 mg/kg/day), the “Inhibition percentage, Ehrlich carcinoma (tumor weight relative to control)” value was found to be 64%. Further, in series [6], the LD50 at 336 h came out at 945 mg/kg, the LD50 at 504 h came out at 945 mg/kg, the LD50 at 72 h was 945 mg/kg and the LD50 at 168 h amounted to 945 mg/kg. Further, in series [5] (90 mg/kg/day), the “Inhibition percentage, sarcoma 180 (tumor weight relative to control)” value is on record as 62%.
